{"source": "PubChem BioAssay (NCI)", "assay_in_all_cases": "NCI tumour cell line growth inhibition, 48 h", "key": {"[1]": {"system": "MCF7 breast"}, "[2]": {"system": "HCT-116 colon"}, "[3]": {"system": "SK-MEL-28 melanoma"}, "[4]": {"system": "CAKI-1 renal"}, "[5]": {"system": "A549 NSCLC"}, "[6]": {"system": "HOP-92 NSCLC"}, "[7]": {"system": "OVCAR-5 ovarian"}, "[8]": {"system": "SK-OV-3 ovarian"}, "[9]": {"system": "HCC-2998 colon"}, "[10]": {"system": "COLO 205 colon"}, "[11]": {"system": "MDA-MB-435"}, "[12]": {"system": "ACHN renal"}, "[13]": {"system": "NCI-H522 lung"}, "[14]": {"system": "MDA-N"}, "[15]": {"system": "SNB-75 CNS"}, "[16]": {"system": "KM12 colon"}, "[17]": {"system": "BT-549 breast"}, "[18]": {"system": "HT29 colon"}, "[19]": {"system": "SN12C renal"}, "[20]": {"system": "EKVX NSCLC"}, "[21]": {"system": "T-47D breast"}, "[22]": {"system": "IGROV1 ovarian"}, "[23]": {"system": "DU-145 prostate"}, "[24]": {"system": "MDA-MB-231 breast"}, "[25]": {"system": "SK-MEL-2 melanoma"}, "[26]": {"system": "NCI-H460 lung"}, "[27]": {"system": "K-562 leukemia"}, "[28]": {"system": "CCRF-CEM leukemia"}, "[29]": {"system": "SNB-19 CNS"}, "[30]": {"system": "PC-3 prostate"}, "[31]": {"system": "LOX IMVI melanoma"}, "[32]": {"system": "SR leukemia"}, "[33]": {"system": "MOLT-4 leukemia"}, "[34]": {"system": "SW-620 colon"}, "[35]": {"system": "UACC-62 melanoma"}, "[36]": {"system": "MALME-3M melanoma"}, "[37]": {"system": "SK-MEL-5 melanoma"}, "[38]": {"system": "NCI-H23 lung"}, "[39]": {"system": "NCI-H226 lung"}, "[40]": {"system": "SF-295 CNS"}, "[41]": {"system": "NCI/ADR-RES ovarian"}, "[42]": {"system": "RPMI-8226 leukemia"}, "[43]": {"system": "M14 melanoma"}, "[44]": {"system": "OVCAR-3 ovarian"}, "[45]": {"system": "TK-10 renal"}, "[46]": {"system": "HOP-62 NSCLC"}, "[47]": {"system": "OVCAR-4 ovarian"}, "[48]": {"system": "SF-539 CNS"}, "[49]": {"system": "UACC-257 melanoma"}, "[50]": {"system": "UO-31 renal"}, "[51]": {"system": "HCT-15 colon"}, "[52]": {"system": "RXF 393 renal"}, "[53]": {"system": "786-0 renal"}, "[54]": {"system": "U251 CNS"}, "[55]": {"system": "OVCAR-8 ovarian"}, "[56]": {"system": "A498 renal"}, "[57]": {"system": "SF-268 CNS"}, "[58]": {"system": "HS 578T breast"}}, "note": "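Method: 48-hour compound exposure of cells in 96-well plates, five concentrations, linear interpolation of endpoints. At the TGI there is no net growth.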", "data": [{"compound": "COC(=O)[C@H](C)NC(=O)[C@H](CSC)N1C(=O)N[C@@H](C(C)C)C1=O", "values": [{"measurement": "TGI", "setting": "[1]", "value": "> 100", "unit": "µM"}, {"measurement": "TGI", "setting": "[2]", "value": "> 100", "unit": "µM"}, {"measurement": "TGI", "setting": "[3]", "value": "> 100", "unit": "µM"}, {"measurement": "TGI", "setting": "[4]", "value": "> 100", "unit": "µM"}, {"measurement": "TGI", "setting": "[5]", "value": "> 100", "unit": "µM"}, {"measurement": "TGI", "setting": "[6]", "value": "> 100", "unit": "µM"}, {"measurement": "TGI", "setting": "[7]", "value": "> 100", "unit": "µM"}, {"measurement": "TGI", "setting": "[8]", "value": "> 100", "unit": "µM"}, {"measurement": "TGI", "setting": "[9]", "value": "> 100", "unit": "µM"}, {"measurement": "TGI", "setting": "[10]", "value": "> 100", "unit": "µM"}, {"measurement": "TGI", "setting": "[11]", "value": "> 100", "unit": "µM"}, {"measurement": "TGI", "setting": "[12]", "value": "> 100", "unit": "µM"}, {"measurement": "TGI", "setting": "[13]", "value": "> 100", "unit": "µM"}, {"measurement": "TGI", "setting": "[14]", "value": "> 100", "unit": "µM"}, {"measurement": "TGI", "setting": "[15]", "value": "> 100", "unit": "µM"}, {"measurement": "TGI", "setting": "[16]", "value": "> 100", "unit": "µM"}, {"measurement": "TGI", "setting": "[17]", "value": "> 100", "unit": "µM"}, {"measurement": "TGI", "setting": "[18]", "value": "> 100", "unit": "µM"}, {"measurement": "TGI", "setting": "[19]", "value": "> 100", "unit": "µM"}, {"measurement": "TGI", "setting": "[20]", "value": "> 100", "unit": "µM"}, {"measurement": "TGI", "setting": "[21]", "value": "> 100", "unit": "µM"}, {"measurement": "TGI", "setting": "[22]", "value": "> 100", "unit": "µM"}, {"measurement": "TGI", "setting": "[23]", "value": "> 100", "unit": "µM"}, {"measurement": "TGI", "setting": "[24]", "value": "> 100", "unit": "µM"}, {"measurement": "TGI", "setting": "[25]", "value": "> 100", "unit": "µM"}, {"measurement": "TGI", "setting": "[26]", "value": "> 100", "unit": "µM"}, {"measurement": "TGI", "setting": "[27]", "value": "> 100", "unit": "µM"}, {"measurement": "TGI", "setting": "[28]", "value": "> 100", "unit": "µM"}, {"measurement": "TGI", "setting": "[29]", "value": "> 100", "unit": "µM"}, {"measurement": "TGI", "setting": "[30]", "value": "> 100", "unit": "µM"}, {"measurement": "TGI", "setting": "[31]", "value": "> 100", "unit": "µM"}, {"measurement": "TGI", "setting": "[32]", "value": "> 100", "unit": "µM"}, {"measurement": "TGI", "setting": "[33]", "value": "> 100", "unit": "µM"}, {"measurement": "TGI", "setting": "[34]", "value": "> 100", "unit": "µM"}, {"measurement": "TGI", "setting": "[35]", "value": "> 100", "unit": "µM"}, {"measurement": "TGI", "setting": "[36]", "value": "> 100", "unit": "µM"}, {"measurement": "TGI", "setting": "[37]", "value": "> 100", "unit": "µM"}, {"measurement": "TGI", "setting": "[38]", "value": "> 100", "unit": "µM"}, {"measurement": "TGI", "setting": "[39]", "value": "> 100", "unit": "µM"}, {"measurement": "TGI", "setting": "[40]", "value": "> 100", "unit": "µM"}, {"measurement": "TGI", "setting": "[41]", "value": "> 100", "unit": "µM"}, {"measurement": "TGI", "setting": "[42]", "value": "> 100", "unit": "µM"}, {"measurement": "TGI", "setting": "[43]", "value": "> 100", "unit": "µM"}, {"measurement": "TGI", "setting": "[44]", "value": "> 100", "unit": "µM"}, {"measurement": "TGI", "setting": "[45]", "value": "> 100", "unit": "µM"}, {"measurement": "TGI", "setting": "[46]", "value": "> 100", "unit": "µM"}, {"measurement": "TGI", "setting": "[47]", "value": "> 100", "unit": "µM"}, {"measurement": "TGI", "setting": "[48]", "value": "> 100", "unit": "µM"}, {"measurement": "TGI", "setting": "[49]", "value": "> 100", "unit": "µM"}, {"measurement": "TGI", "setting": "[50]", "value": "> 100", "unit": "µM"}, {"measurement": "TGI", "setting": "[51]", "value": "> 100", "unit": "µM"}, {"measurement": "TGI", "setting": "[52]", "value": "> 100", "unit": "µM"}, {"measurement": "TGI", "setting": "[53]", "value": "> 100", "unit": "µM"}, {"measurement": "TGI", "setting": "[54]", "value": "> 100", "unit": "µM"}, {"measurement": "TGI", "setting": "[55]", "value": "> 100", "unit": "µM"}]}, {"compound": "CSC(SC)=C1C(=O)N(c2ccccc2)N=C1C", "values": [{"measurement": "TGI", "setting": "[1]", "value": 46, "unit": "µM"}, {"measurement": "TGI", "setting": "[2]", "value": 54, "unit": "µM"}, {"measurement": "TGI", "setting": "[4]", "value": 65.8, "unit": "µM"}, {"measurement": "TGI", "setting": "[5]", "value": "> 100", "unit": "µM"}, {"measurement": "TGI", "setting": "[6]", "value": 33.7, "unit": "µM"}, {"measurement": "TGI", "setting": "[7]", "value": "> 100", "unit": "µM"}, {"measurement": "TGI", "setting": "[8]", "value": 91.9, "unit": "µM"}, {"measurement": "TGI", "setting": "[9]", "value": "> 100", "unit": "µM"}, {"measurement": "TGI", "setting": "[10]", "value": 36.3, "unit": "µM"}, {"measurement": "TGI", "setting": "[56]", "value": 90.5, "unit": "µM"}, {"measurement": "TGI", "setting": "[12]", "value": "> 100", "unit": "µM"}, {"measurement": "TGI", "setting": "[13]", "value": 59, "unit": "µM"}, {"measurement": "TGI", "setting": "[14]", "value": "> 100", "unit": "µM"}, {"measurement": "TGI", "setting": "[15]", "value": "> 100", "unit": "µM"}, {"measurement": "TGI", "setting": "[16]", "value": "> 100", "unit": "µM"}, {"measurement": "TGI", "setting": "[17]", "value": 81.9, "unit": "µM"}, {"measurement": "TGI", "setting": "[18]", "value": "> 100", "unit": "µM"}, {"measurement": "TGI", "setting": "[19]", "value": 97.3, "unit": "µM"}, {"measurement": "TGI", "setting": "[20]", "value": 54.6, "unit": "µM"}, {"measurement": "TGI", "setting": "[22]", "value": 93.5, "unit": "µM"}, {"measurement": "TGI", "setting": "[24]", "value": "> 100", "unit": "µM"}, {"measurement": "TGI", "setting": "[25]", "value": 46.8, "unit": "µM"}, {"measurement": "TGI", "setting": "[57]", "value": "> 100", "unit": "µM"}, {"measurement": "TGI", "setting": "[26]", "value": 82.4, "unit": "µM"}, {"measurement": "TGI", "setting": "[27]", "value": 66.8, "unit": "µM"}, {"measurement": "TGI", "setting": "[28]", "value": 49.8, "unit": "µM"}, {"measurement": "TGI", "setting": "[29]", "value": 98.1, "unit": "µM"}, {"measurement": "TGI", "setting": "[30]", "value": "> 100", "unit": "µM"}, {"measurement": "TGI", "setting": "[31]", "value": "> 100", "unit": "µM"}, {"measurement": "TGI", "setting": "[33]", "value": 52.9, "unit": "µM"}, {"measurement": "TGI", "setting": "[34]", "value": "> 100", "unit": "µM"}, {"measurement": "TGI", "setting": "[35]", "value": 89.9, "unit": "µM"}, {"measurement": "TGI", "setting": "[36]", "value": 58.8, "unit": "µM"}, {"measurement": "TGI", "setting": "[37]", "value": 24.3, "unit": "µM"}, {"measurement": "TGI", "setting": "[39]", "value": 87.1, "unit": "µM"}, {"measurement": "TGI", "setting": "[40]", "value": 99.6, "unit": "µM"}, {"measurement": "TGI", "setting": "[41]", "value": "> 100", "unit": "µM"}, {"measurement": "TGI", "setting": "[58]", "value": "> 100", "unit": "µM"}, {"measurement": "TGI", "setting": "[43]", "value": 60.8, "unit": "µM"}, {"measurement": "TGI", "setting": "[45]", "value": "> 100", "unit": "µM"}, {"measurement": "TGI", "setting": "[46]", "value": "> 100", "unit": "µM"}, {"measurement": "TGI", "setting": "[47]", "value": "> 100", "unit": "µM"}, {"measurement": "TGI", "setting": "[48]", "value": "> 100", "unit": "µM"}, {"measurement": "TGI", "setting": "[49]", "value": "> 100", "unit": "µM"}, {"measurement": "TGI", "setting": "[51]", "value": "> 100", "unit": "µM"}, {"measurement": "TGI", "setting": "[52]", "value": 74.4, "unit": "µM"}, {"measurement": "TGI", "setting": "[53]", "value": 62, "unit": "µM"}, {"measurement": "TGI", "setting": "[54]", "value": "> 100", "unit": "µM"}, {"measurement": "TGI", "setting": "[55]", "value": "> 100", "unit": "µM"}]}]}
